How the values were obtained:
[1] = test system: industrial ethanol-producing yeast strain PE-2; experiment: Laboratory simulation of yeast sugar-ethanol fermentation with exogenously added alcohols; format: cell-based, Saccharomyces cerevisiae; details: 1 L bioreactor, 224 g/L glucose, pH 4.5, 32° C., 70 hours; about 16 g alcohol added
Description: The experiment was performed using a 1 L bioreactor with 0.7 L as a final volume. The pH was controlled at 4.5 by adding NaOH 25% w/w, 32° C. temperature and 300 rpm stirring. The industrial ethanol-producing yeast strain used was PE-2, with an initial pitch of 0.7 g/L DWC and the culture medium was YNB without amino acids. The final sugar concentration was 224 g/L glucose. The experiment was performed under aseptic conditions. The bioreactor was first filled with 650 ml of YNB medium plus sugar, and after pH and temperature stabilization, a suspension of 50 mL with the yeast inoculum was added into the bioreactor. […] Each solution followed the profile: 10 hours since inoculation, 0.2 mL/min; from 11 hours to 15 hours, 0.4 mL/min; from 16 hours to 40 hours, 0.6 mL/min; and from 41 hours to 46 hours, 0.2 mL/min. This profile was added to simulate an ethanol production profile of PE-2 yeast. The fermentation was ended with 70 hours of fermentation run.

[2] = test system: industrial ethanol-producing yeast strain PE-2; experiment: Alcohol tolerance experiment: sugar (glucose) consumption of yeast cultures with added alcohols; format: cell-based, Saccharomyces cerevisiae; details: for Sugar Consumption: PE-2, YNB medium, 40 g/L glucose, 32° C., 8-9 hours, no consumption = lethal concentration; for Toxicity related to ethanol (times more inhibition than ethanol): ratio of sugar consumption inhibition per unit of alcohol to that of ethanol; for Sugar consumption inhibition per unit of alcohol regarding the Control (+) condition (no alcohol added) / Slope (linear regression of sugar consumption inhibition against alcohol concentration): samples two hours after inoculation; for Slope (linear regression of sugar consumption inhibition against alcohol concentration): alcohol concentration in g/L
Description: An alcohol tolerance experiment was conducted to understand the negative effects of n-propanol (i.e., 1-propanol), 2-propanol, and 2-butanol compared to ethanol in Saccharomyces cerevisiae. Ethanol, which is a natural product (or native product) produced during sugar-ethanol fermentation is generally well-tolerated by yeast such as S. cerevisiae. However, existing approaches to produce non-natural chemicals such as C3, C4, or C5 alcohols, ketones, organic acids, or other non-natural products (e.g., alcohols other than ethanol) by using genetically modified yeast are usually impacted negatively by the higher toxicity compared to ethanol of such non-natural chemicals or alcohols (e.g., n-propanol and 2-propanol) to the yeast cell-growth and/or performance.
Several concentrations of n-propanol, 2-propanol, 2-butanol and ethanol was tested in yeast cultures. The experiment was conducted using the industrial ethanol-producing yeast strain PE-2 in a 250 mL shaken flask with 50 mL of YNB medium having 40g/L glucose at 32° C. The culture was conducted during 8-9 hours with an initial OD600 nm=12 (OD=optical density). Samples were taken in adequate intervals and analyzed by HPLC to measure glucose, ethanol, n-propanol, 2-propanol and 2-butanol. The experiment was performed according to the parameters in Table 13, in duplicate. The conditions at which no sugar consumption was observed were considered a lethal concentration and were excluded from the analysis.
The percentage of glucose consumption inhibition was assessed for various concentrations of alcohols. Samples were tested two hours after inoculation. At this point, glucose had not been totally consumed.

Compound | Ethanol produced [1] [g] | Ethanol yield [1] [g/g] | Volumetric productivity [1] [g/Lh] | Sugar Consumption ([2]; alcohol 20 g/L) | Sugar Consumption ([2]; alcohol 40 g/L) | Sugar Consumption ([2]; alcohol 60 g/L) | Sugar Consumption ([2]; alcohol 80 g/L) | Toxicity related to ethanol (times more inhibition than ethanol) [2] | Sugar consumption inhibition per unit of alcohol regarding the Control (+) condition (no alcohol added) [2] | Slope (linear regression of sugar consumption inhibition against alcohol concentration) [2] | Sugar Consumption ([2]; alcohol 120 g/L)
CCO [Condition 1, ethanol] | 80.9 | 0.5 | 1.4 | – | – | – | – | – | – | – | –
CC(C)O [2-Propanol, isopropyl alcohol] | – | – | – | Yes | Yes | Yes | Yes | 1.45 | 0.90% per g · L^−1 of alcohol | 0.009 | –
n-propanol | – | – | – | Yes | Yes | Yes | No | 2.16 | 1.34% per g · L^−1 of alcohol | 0.0134 | –
CCO [Ethanol, ethanol] | – | – | – | Yes | Yes | Yes | Yes | – | 0.62% per g · L^−1 of alcohol | 0.0062 | Yes
2-butanol | – | – | – | Yes | Yes | No | No | 2.94 | 1.82% per g · L^−1 of alcohol | 0.0182 | –

From patent US20250075235A1, “PRODUCTION OF ETHANOL WITH ONE OR MORE CO-PRODUCTS IN YEAST” (Braskem S.A., priority 2020, published 2025)
